These results are taken from publication PMC4309560, “Creating Novel Activated Factor XI Inhibitors through Fragment Based Lead Generation and Structure Aided Drug Design” (PLoS ONE, 2015).

Experiment [1] has as its target T1, FXIa CD (Homo sapiens, UniProt P03951, C500S/K455A/S452A/T493A).
T1 construct: purification of the catalytic domain (residues 370–607) was carried out as described by Jin et al; made in house
Kind of experiment: Ligand detected 1D NMR fragment screen. It counts as binding. The conditions noted are these: compounds screened at 100 μM, 5 μM FXIa CD. The procedure:
Ligand detected 1D NMR. Compounds were screened at 100 μM in mixtures of six. Weakly binding fragments were identified from intensity changes through measurements on three samples viz. […] The signal from a compound binding with low affinity to FXIa CD decreased upon addition of protein and regained upon addition of a high affinity reference compound. Comparison with reference spectra of individual compounds enabled identification of the binding fragment in a mixture. […] As a positive control, the S1 binding ligand para-methyl-benzamidine (pMeBza), compound 3, was used, and in Fig. 3 the doublet at 7.66 ppm is shown.
NMR samples were prepared in aqueous buffer containing 50 mM deuterated TRIS, pH 7.4, 3 mM NaN3, and 10% D2O. FXIa CD stock solution was buffer exchanged and concentrated to approximately 100 μM (2.7 mg/mL) (UV absorption ε280 = 60390 cm^-1) using 10 kDa cut-off Millipore filter centrifugation tubes. Control experiments with pMeBza and compound 2 were done on all protein preparations (Fig. 3). […]
NMR data were collected at 20 °C on a Bruker Avance III 600 MHz NMR spectrometer equipped with a cryo probe head. 1D ^1H T 1ρ NMR spectra were recorded with 256 scans, 3.2 s interscan delay, 180 ms spin lock time and 64 kHz spin lock field. […]

In experiment [2] the target is T2, Human FXIa (Homo sapiens, UniProt P03951).
T2 construct: purchased HTI, Essex Junction, USA
T2 sequence (P03951 388-625): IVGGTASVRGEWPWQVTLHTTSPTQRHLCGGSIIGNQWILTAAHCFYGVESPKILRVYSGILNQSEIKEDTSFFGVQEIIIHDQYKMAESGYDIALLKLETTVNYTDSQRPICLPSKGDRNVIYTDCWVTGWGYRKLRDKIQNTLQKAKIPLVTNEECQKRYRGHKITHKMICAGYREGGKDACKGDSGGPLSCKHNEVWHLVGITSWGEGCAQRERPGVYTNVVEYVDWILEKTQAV
T2 sequence (P03951 19-387): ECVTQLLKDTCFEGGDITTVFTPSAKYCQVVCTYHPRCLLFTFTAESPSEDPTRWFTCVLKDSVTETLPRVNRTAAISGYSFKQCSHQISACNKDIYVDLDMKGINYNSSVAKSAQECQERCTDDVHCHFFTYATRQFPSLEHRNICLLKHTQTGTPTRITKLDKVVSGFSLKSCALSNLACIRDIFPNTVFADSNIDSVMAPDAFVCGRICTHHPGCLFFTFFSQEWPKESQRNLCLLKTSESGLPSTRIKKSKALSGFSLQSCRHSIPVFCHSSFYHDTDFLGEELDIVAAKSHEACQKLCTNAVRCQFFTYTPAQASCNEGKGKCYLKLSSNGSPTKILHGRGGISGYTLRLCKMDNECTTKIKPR
Description: FXIa enzymatic chromogenic assay. It counts as biochemical. The conditions noted are these: 1 mM. On the procedure: Enzymatic assay. […] Selected compounds were also screened against other serine proteases to evaluate their selectivity profiles.
Once the compounds were synthesized and characterized, enzymatic assays were performed to evaluate the inhibitory activity of the resulting compounds against FXIa and other serine proteases. […] IC50 values for the compounds were determined using equation: Q= V/(1+([I]/IC50)^n) Q denotes the assay readout, V denotes the uninhibited velocity of the enzyme, [I] denotes the inhibitor concentration, n denotes the slope and IC50 is the inhibitor concentration at V/2.
[S] denotes the substrate concentration.

The subject of experiment [3] is FXIa. Further details: method as in PMID 17597608. The conditions noted are these: irreversible inhibition; cited from earlier work.
The test system of experiment [4] is rat models. Details: method as in PMID 17597608. To be noted: cited from earlier work.

T1 sequence (P03951 388-625 S452A/K455A/T493A/C500S): as the sequence (P03951 388-625) above, with S65A, K68A, T106A, C113S counted along it

Regarding “6-methyl-3,4-dihydro-1H-quinolin-2-one [Compound 17]”, the “hit in NMR screen” value in experiment [1] is “not identified as a hit in NMR”. Besides, in experiment [2], the “FXIa % inh. at 1 mM” value is 20%.

As to `CC(C)(C)NC(=O)N1CCN(C(=O)N2C(=O)[C@H](CCCN=C(N)N)[C@H]2C(=O)O)CC1` [BMS-262084], the IC50 in experiment [3] was 2.8 nM. Also, the “in vivo antithrombotic efficacy” value in experiment [4] is reported as “demonstrated in vivo antithrombotic efficacy”.

A word on the IC50: it is the concentration that inhibits the measured activity by half.
